Results reported in US20050209295A1, “Methimazole derivatives and tautomeric cyclic thiones to inhibit cell adhesion” (priority 2004, published 2005).

What was measured:
Type in all cases: cell-based, human
VCAM-1 = assay: TNF-alpha-induced VCAM-1 RNA levels in aortic endothelial cells (Northern blot); details: aortic endothelial cells, mean ± SD
Description: (§1) Cell culture and treatment of HAEC: Human aortic endothelial cells (HAEC; Cambrex Bio Science Walkersville, Inc., Walkersville, Md.) are cultured in M199 supplemented with 8% FBS, 100 μg/ml heparin, 10 ng/ml endothelial growth factor, 100 μg/ml hypothalamus extract, 2 mM L-glutamine, 1% non-essential amino acids, 100 units/ml penicillin and 100 μg/ml streptomycin. HAEC are subcultured on gelatin pre-coated: 96-well tissue culture plates (Corning Incorporated; Corning, N.Y.) for viability assays and ELISA; 100-mm tissue culture dishes (BD Falcon; Franklin Lakes, N.J.) for Northern blot analyses, Western blot analyses and EMSA; 35-mm tissue culture dishes (Corning) for adhesion assays and on 24-well tissue culture plates for luciferase promoter assays (BD Falcon). All experiments are performed with confluent HAEC monolayers. Unless noted otherwise, HAEC are treated with 25 ng/ml TNF-α, in the absence or presence of C-10 or 0.25% DMSO (carrier control for C-10), for 2-24 hrs. The concentration of DMSO is held constant at 0.25% (unless indicated otherwise) for all of the C-10 conditions.
(§2) HAEC are washed with PBS and total RNA extracted using a commercial kit (RNeasy Mini Kit; Qiagen Inc.; Valencia, Calif.). 12 μg of total RNA per lane is resolved on 1% denaturing agarose gels containing 0.66M formaldehyde. Gels are capillary blotted on Nytran membranes (Schleicher and Schuell Inc.; Keene, N.H.), UV cross-linked, and used for hybridization. The probe for IRF-1 has been previously described (33). The G3PDH cDNA is from Clontech (Palo Alto, Calif.). […]; cDNAs are labeled with α-^32P-dCTP using the Ladderman Labeling Kit (Takara Biochemical Inc.; Berkeley, Calif.) (33). Northern blots are developed using a BAS 1500 Bioimaging Analyzer (Fuji Photo Film Co., Ltd. Medical Systems USA Inc.; Stanford, Calif.). Each experiment is replicated at least twice.

VCAM-1 promoter = assay: TNF-alpha-induced VCAM-1 promoter activity, dual luciferase reporter assay in HAEC; details: hVCAM-1(−228 to +12)-luciferase construct, mean ± SD; for inhibition at 5000 µM: Homo sapiens
Description: as §1
Dual Luciferase Assay: Four human VCAM-1 promoter deletion constructs of different length, −1641/+12, −288/+12, −228/+12, −85/+12 bp are amplified by PCR from human genomic DNA. Each upstream primer contained a restriction endonuclease Mlu I site located at the 5′-end of the primer. The downstream primer corresponding to the +12 end contained a restriction endonuclease Xho I site at the 5′-end. The PCR products are digested by Mlu I and Xho I (New England Biolabs Inc., Beverly, Mass.) and ligated into a similarly digested pGL3 basic luciferase reporter vector (Promega, Madison, Wis.). Cells are transfected for 24 hrs. with 400 ng of indicated constructs, or pGL3 basic luciferase reporter vector as control, using GeneJuice transfection reagent (Novagen Inc., Madison, Wis.). All cells are also transfected with phRL-TK (Int−) vector (Promega), which contains wildtype Renilla luciferase (Rluc) as an “internal” transfection control. Luciferase assays are conducted with the Dual-Luciferase Reporter Assay System (Promega) on a Lumat LB 9507 tube luminometer. In every experiment, each condition is run in triplicate wells. Each experiment is replicated at least twice.

IRF-1 [1] = assay: TNF-alpha-induced IRF-1 RNA levels (Northern blot); details: mean ± SD
Description: as §1, §2

IRF-1 [2] = assay: TNF-alpha-induced IRF-1 protein levels (Western blot); details: mean ± SD
Description: as §1
Western blot analysis: Whole cell lysates are prepared in lysis buffer (150 mM NaCl, 1% IGEPAL CA-630, 50 mM Tris-HCL pH 8.0). 20 μg of lysates are then resolved on 4-12% Bis-Tris PAGE gels under denaturing conditions using the NuPAGE Bis-Tris System (Invitrogen; Carlsbad, Calif.). Proteins are transferred to nitrocellulose membranes, which are probed with IRF-1 antibody. Subsequent binding of HRP conjugated goat anti-rabbit Ab (sc-2054, Santa Cruz Biotechnology, Inc.) is detected using Lumigen PS-3 detection reagents (Amersham Pharmacia Biotech.; Piscataway, N.J.).

Row | Compound | % INHIBITION of TNF-alpha-induced VCAM-1 RNA levels (VCAM-1; 5.0 mM) | % INHIBITION of TNF-alpha-induced VCAM-1 RNA levels (VCAM-1; 10 :M) | % INHIBITION of TNF-alpha-induced VCAM-1 RNA levels (VCAM-1; 100 :M) | % INHIBITION of TNF-alpha-induced VCAM-1 promoter activity (VCAM-1 promoter; 5.0 mM) [%] | % INHIBITION of TNF-alpha-induced VCAM-1 promoter activity (VCAM-1 promoter; 10 :M) [%] | % INHIBITION of TNF-alpha-induced VCAM-1 promoter activity (VCAM-1 promoter; 100 :M) [%] | % INIHIBITION of TNF-alpha-induced IRF-1 RNA levels (IRF-1 [1]; 5 mM) [%] | % INIHIBITION of TNF-alpha-induced IRF-1 RNA levels (IRF-1 [1]; 10 :M) [%] | % INIHIBITION of TNF-alpha-induced IRF-1 RNA levels (IRF-1 [1]; 100 :M) [%] | % INHIBITION of TNF-alpha-induced IRF-1 Protein levels (IRF-1 [2]; 5 mM) [%] | % INHIBITION of TNF-alpha-induced IRF-1 Protein levels (IRF-1 [2]; 10 :M) [%] | % INHIBITION of TNF-alpha-induced IRF-1 Protein levels (IRF-1 [2]; 100 :M) [%] | inhibition at 5000 µM (VCAM-1 promoter; 5.0 mM) [%] | inhibition at 5000 µM (IRF-1 [2]; Homo sapiens, 5 mM) [%]
1 | Cc1ccc2[nH]c(S)nc2c1 [2-mercapto-5-methylbenzimididazole, 2-Mercapto-5-methylbenzimidazole] | 11 ± 7% |  |  |  |  |  |  |  |  |  |  |  |  | 
2 | 1-Methyl-2-Thiomethyl-5(4)nitroimidazole | 92 ± 5% | 34 ± 6% | 83 ± 10% | 58 ± 6 | 29 ± 6 | 54 ± 10 | 95 ± 12 | 26 ± 12 | 64 ± 16 | 95 ± 12 | 46 ± 15 | 69 ± 10 |  | 
3 | Sc1nc2ccccc2[nH]1 [2-mercaptobenzimidazole, 2-Mercaptobenzimidazole] | 26 ± 10% | 0% | 0% |  | 0 | 0 |  |  |  |  |  |  | 30 ± 4 | 
4 | Cn1ccnc1S [Methimazole, 1-Methylimidazole-2-thiol] | 20 ± 10% | 0% | 0% |  |  |  | 27 ± 12 | 0 | 0 |  | 0 | 0 | 0 | 17 ± 6
5 | Cn1ccn(C)c1=S [N-methylmethimazole, N-Methylmethimazole] | 47 ± 12% | 0% | 31 ± 10% |  | 6 ± 2 | 44 ± 11 | 75 ± 14 | 0 | 34 ± 15 |  |  |  | 31 ± 3 | 
6 | Sc1ncc[nH]1 [2-mercaptoimidazole, 2-Mercaptoimidazole] | None | None | None |  |  |  | 0 | 0 | 0 |  |  |  | 0 | 
7 | Cc1cnc(S)n1C [5-methylmethimazole, 5-Methylmethimazole] |  |  |  |  | 0 | 0 |  |  |  |  |  |  | 14 ± 8 | 
